Measurements as given in US12269804B2, “Quinoxalinone compounds, compositions, methods, and kits for increasing genome editing efficiency” (VERTEX PHARMACEUTICALS INCORPORATED, priority 2018, dated 2025).
Like-named read-outs stand apart in the source and are kept apart here.

Experiments:
Type in all cases: cell-based, human
mPB CD34+ cells, NAV1.7 = assay: Gene editing rates (TIDE assay) in mPB CD34+ cells electroporated with RNP (spCAS9 protein+NAV1.7 sgRNA) and NAV1.7 Non-PAM ssODN; conditions: for EC50: Homo sapiens
Description: (§1) Primary human mobilized peripheral blood (mPB) CD34^+ hematopoietic stem and progenitor cells (HSPCs) were purchased from Hemacare or AllCells. Cells were thawed, washed and resuspended in complete medium comprised of serum free medium CellGro SCGM (CellGenix) and supplemented with cytokine mix (300 ng/mL SCF, 300 ng/mL Flt3L, 100 ng/mL TPO, 60 ng/ml IL-3) at a density of 1-3×10^5 cells per mL and incubated at 37° C./5% CO2 incubator for 48 hours prior to electroporation.
(§2) CD34+ cells were electroporated two days post thaw. The following conditions were used for electroporation: 2.0×E6 cells, 15 μg Cas9 protein (Feldan), 15 μg sgRNA, 1 μM of ssODN in 100 μl of P3 electroporation buffer using program CA-137. Electroporated cells were transferred by equally dividing them into eight wells of a 24-well plate, each well containing various concentrations of DNA-PK inhibitors. Cells were incubated at 37° C. in a 5% CO2 incubator for two days and evaluated for cell viability and gene editing.
(§3) Genomic DNA was isolated by incubating cells with 50 μl DNA Quickextract solution (Epicentre) per well of 96 well plate for 30 min at 37° C. Cellular extract was mixed and transferred into a PCR plate and then incubated for 6 min at 65° C. and 2 min at 98° C. PCR reactions were carried out with 1 μl of Genomic DNA containing solution by using AccuPrime™ Pfx DNA Polymerase (Thermofisher, 12344024). PCR conditions were 4 min at 94° C. (1×), followed by 15 s at 94° C., 15 s at 60° C. and 1 min at […] (40×). The PCR products were purified and then Sanger sequenced by GENEWIZ. The following primer pairs spanning the target site were used for PCR (FW, forward; RV, reverse). Primers used by Sanger Sequencing are indicated by an asterisk (*): […]
(§4) Each sequence chromatogram was analyzed using TIDE (Tracking of Indels by Decomposition) software (http://tide.nki.nl) (See also Brinkman et al., Nucleic Acids Research, Volume 42, Issue 22, 16 Dec. 2014, Pages e168). Mock-electroporated samples were used as the reference sequence, and parameters were set to an indel size of 30 nt, and the decomposition window was set to cover the largest possible window with high-quality traces. Total indel (insertion and deletions) rates were obtained directly from TIDE plots. HDR rates were the percentage of events with an insertion of 10 Nucleotides. NHEJ Rates were calculated as Total Indel rate—HDR rate. GraphPad Prism 7 software was used to make Graphs and to calculate the all Statistical information.
To investigate the effect of DNA-PK inhibitors on HDR gene editing rates, mPB CD34+ cells were electroporated with RNP (spCAS9 protein+NAV1.7 sgRNA) and NAV1.7 Non-PAM ssODN. Cells were then incubated with various concentrations of Compound 1. Gene editing rates were determined by using TIDE assay 48 h after electroporation. Gene editing rates were expressed in percentages and classified as HDR and NHEJ as shown in FIG. 3A (Donor B) and FIG. 3B (Donor C. Cell survival rates are shown in percentages where control cells were set as 100%.

CD34+ cells, AAVS1 = assay: HDR gene editing in CD34+ cells at AAVS1 (Summary Table); conditions: for EC50: Homo sapiens
Description: as §1, §2, §3, §4

[1] = test system: Induced Pluripotent Stem Cells (iPSCs), AAVS1; assay: Gene editing rates (TIDE assay) in iPSCs electroporated with spCAS9 mRNA, AAVS1 sgRNA and AAVS1 PAM ssODN
Description: Induced Pluripotent Stem Cells (iPSCs) were derived from Human dermal fibroblasts after viral transduction with Yamanaka's reprogramming factors, Oct4, Sox2, KLF4 and c-Myc. Derived iPSCs were able to differentiate into 3 germ layers and contained a normal karyotype with 23 pairs of Chromosomes.
For iPSCs the following conditions were used: 2.0×E5 Cells, 250 ng of CAS9 mRNA, 500 ng of sgRNA and 0.66 μM of ssODN in 20 μl of P3 Electroporation buffer by using program CA-137. The electroporated cells were transferred to a 96 well plate containing 100 μl of mTEsR1 media (Stem Cell Technologies) supplemented with 10 μM ROCK Inhibitor Y-27632 (Stem Cell Technologies) with or without DNA-PK inhibitors and then incubated at 37° C. in a 5% CO2 incubator.
as §3, §4
(§5) To investigate the effect of DNA-PK inhibitors on HDR gene editing rates, iPSCs were electroporated with spCAS9 mRNA, AAVS1 sgRNA and AAVS1 PAM ssODN and then incubated with different concentrations of Compound 1 or left untreated (Control). Gene editing rates were determined by using TIDE assay 72 hs after electroporation. Gene editing rates were expressed in percentages and classified as HDR and NHEJ. Cell survival rates are shown in percentages where control cells were set as 100%.

[2] = test system: Bronchial Epithelial Cells (BECs), AAVS1; assay: Gene editing rates (TIDE assay) in BECs electroporated with spCAS9 mRNA, AAVS1 sgRNA and AAVS1 PAM ssODN
Description: (§6) Bronchial Epithelial Cells (BECs) were derived from human donors diagnosed with Cystic Fibrosis with a CFTR dF508/dF508 genotype.
(§7) For BECs, the following conditions were used for electroporation: 1.8×E5 Cells, 250 ng of CAS9 mRNA, 500 ng of sgRNA and 0.66 μM of ssODN in 20 μl of P4 Electroporation buffer by using program CM-138. The electroporated cells were transferred to a 96 well plate containing 100 μl of BEC culture media supplemented with DNA-PK inhibitors or left untreated. Cells were incubated at 37° C. in a 5% CO2 incubator.
as §3, with “reverse).” for “reverse). Primers used by Sanger Sequencing are indicated by an asterisk (*):”
(§8) Each sequence chromatogram was analyzed using TIDE (Tracking of Indels by Decomposition) software (http://tide.nki.nl) (See also Brinkman et al., Nucleic Acids Research, Volume 42, Issue 22, 16 Dec. 2014, Pages e168). […] NHEJ Rates were calculated as Total Indel rate—HDR rate. […]
To investigate the gene editing kinetics at EC max, BECs were electroporated with spCAS9 mRNA, AAVS1 sgRNA and AAVS1 PAM ssODN and then incubated at different times with 10 μM Compound 1 or left untreated (Control). Gene editing rates were determined by using TIDE assay and expressed in percentages of HDR and NHEJ. […]
BECs were electroporated with spCAS9 mRNA, AAVS1 sgRNA and AAVS1 PAM ssODN and then incubated at different times with 0.7 μM Compound 1 or left untreated (Control). Gene editing rates were determined by using TIDE assay and expressed in percentages of HDR and NHEJ. […]

[3] = test system: Bronchial Epithelial Cells (BECs), NAV1.7; assay: Gene editing rates (TIDE assay) in BECs electroporated with spCAS9 mRNA, NAV1.7 sgRNA and NAV1.7 Non-PAM ssODN
Description: as §6, §7, §3, §4
as §5, with “FIG. 1 illustrates the design of the gene editing assays used in the examples below. To” for “To”, “BECs” for “iPSCs”, “NAV1.7” for “AAVS1”, “NAV1.7 Non-PAM” for “AAVS1 PAM”, “concentrations” for “concentrations of”

[4] = test system: Bronchial Epithelial Cells (BECs), AAVS1; assay: HDR rates in BECs, gene editing components delivered by lipid-mediated transfection (AAVS1); conditions: AAVS1, lipid-based transfection, 72 hs after transfection
Description: as §6
One day prior to transfection, BECs were seeded in a 96-well plate at a cell density of 1×E4 cells per well in BECs culture media. First, 0.15 μl of MessengerMax (ThermoFisher, LMRNA 003) was diluted into 5 μl of Opti-MEM and incubated for 10 min at room temperature. Meanwhile, 80 ng of Cas9 mRNA (Trilink, L-7206), 20 ng of sgRNA (Synthego) and 1 picomol of ssODN were added to 5 μl of Opti-MEM and then mixed with MessengerMAx solution. The mixture was incubated for 5 min prior to addition to the cells. The entire solution was added to the cells in a well of 96-well plate with 100 μl of culture media with or without DNA-PK inhibitors. Cells were incubated at 37° C. for in a 5% CO2 incubator. […]
as §8
To investigate the effects of lipid-mediated transfection, BEC were transfected with spCAS9 mRNA, AAVS1 sgRNA and AAVS1 PAM ssODN and then incubated with different concentration of Compound 1 or left untreated (Control). Gene editing rates were determined by using TIDE assay 72 hs after transfection.

Cn1c(=O)cnc2cc(N3CCOCC3)cc(O[C@H]3CC[C@@H](Nc4ncccn4)CC3)c21 [Compound 1, 1-methyl-6-morpholino-8-(((1,4-cis)-4-(pyrimidin-2-ylamino)cyclohexyl)oxy)quinoxalin-2(1H)-one]
HDR Max % (mPB CD34+ cells, NAV1.7; CD34+, Donor A, NaV1.7): 82% | HDR Max % (mPB CD34+ cells, NAV1.7; CD34+, Donor B, NaV1.7): 86% | HDR Max % (mPB CD34+ cells, NAV1.7; CD34+, Donor C, NaV1.7): 67% | EC50 (mPB CD34+ cells, NAV1.7; 48 h, CD34+ cells, Donor B, NAV1.7, 48 h after electroporation, read-out: EC50 of HDR): 290 nM | EC50 (mPB CD34+ cells, NAV1.7; 48 h, CD34+ cells, Donor B, NAV1.7, 48 h after electroporation, read-out: EC50 of Indel formation): 350 nM | EC50 (mPB CD34+ cells, NAV1.7; CD34+, Donor A, NaV1.7, read-out: HDR EC50): 390 nM | EC50 (mPB CD34+ cells, NAV1.7; CD34+, Donor B, NaV1.7, read-out: HDR EC50): 290 nM | EC50 (mPB CD34+ cells, NAV1.7; CD34+, Donor C, NaV1.7, read-out: HDR EC50): 110 nM | HDR Max % (CD34+ cells, AAVS1; Donor A): 76% | HDR Max % (CD34+ cells, AAVS1; Donor C): 88% | EC50 (CD34+ cells, AAVS1; Donor A): 120 nM | EC50 (CD34+ cells, AAVS1; Donor C): 180 nM | HDR Max % ([1]; AAVS1): 24% | HDR TOP % ([1]; AAVS1, TIDE assay 72 hs after electroporation): 24.41% | EC50 ([1]; Homo sapiens, iPSC, AAVS1, TIDE assay 72 hs after electroporation, read-out: HDR EC50): 325 nM | IC50 ([1]; Homo sapiens, iPSC, AAVS1, TIDE assay 72 hs after electroporation, read-out: NHEJ IC50): 474 nM | EC50 ([1]; Homo sapiens, iPSC, AAVS1, read-out: HDR EC50): 330 nM | HDR Max % [2]: 66% | Maximum Enhance Concentration (ECmax) [2]: 10 µM | EC50 ([2]; Homo sapiens, Epithelial cell, read-out: Enhance Concentration 50 (EC50)): 700 nM | EC50 ([3]; Homo sapiens, Epithelial cell, NAV1.7, TIDE assay 72 hs after electroporation, read-out: HDR EC50): 445 nM | IC50 ([3]; Homo sapiens, Epithelial cell, NAV1.7, TIDE assay 72 hs after electroporation, read-out: NHEJ IC50): 445 nM | EC50 ([3]; Homo sapiens, Epithelial cell, NaV1.7, read-out: HDR EC50): 720 nM | HDR TOP % ([3]; NAV1.7, TIDE assay 72 hs after electroporation): 69.37% | HDR Max % ([3]; NaV1.7): 69% | HDR efficiency rates [4]: increasing HDR efficiency rates with increasing concentrations
